# Experimental data from PMC6375636, “Monotherapy with a low-dose lipopeptide HIV fusion inhibitor maintains long-term viral suppression in rhesus macaques” (PLoS Pathogens, 2019).
# Where two headings read alike, the source gives them in different places. Peptide text beside a SMILES is read from it. * marks the point of attachment. Stearoyl = CCCCCCCCCCCCCCCCCC(=O)*
# How the values were obtained:
# HIV-1NL4-3 pseudovirus = test: Ex vivo inhibitory activity of sera from monkeys administrated LP-80 (single-cycle infection assay); assay type: in vivo, Chinese rhesus macaques; conditions: monkey sera after SC 3 mg/kg
# Method: A single-cycle infection assay was performed to determine the inhibitory activity of the monkey sera on HIV-1NL4-3 pseudovirus. The 50% effective concentration was defined as the fold serum dilution that inhibited 50% of virus infection.
# [1] = rat, in vivo, sc, 6 mg/kg
structure (smiles),measurement,setting,value
CCCCCCCCCCCCCCCCCC(=O)NCCCC[C@H](NC(=O)[C@H](CCC(=O)O)NC(=O)[C@H](CC(C)C)NC(=O)[C@H](CCCCN)NC(=O)[C@H](CCCCN)NC(=O)[C@H](CC(C)C)NC(=O)[C@H](CCC(=O)O)NC(=O)[C@H](CCC(=O)O)NC(=O)[C@H](CCC(=O)O)NC(=O)[C@H](CC(N)=O)NC(=O)[C@H](CCCCN)NC(=O)[C@H](CCCCN)NC(=O)[C@H](CCC(N)=O)NC(=O)[C@H](CCC(N)=O)NC(=O)[C@H](CCC(=O)O)NC(=O)[C@H](CCC(=O)O)NC(=O)[C@H](C)NC(=O)[C@H](CCCCN)NC(=O)[C@H](CCCCN)NC(=O)[C@H](CC(C)C)NC(=O)[C@H](CC(C)C)NC(=O)[C@H](CCC(=O)O)NC(=O)[C@H](CCC(=O)O)NC(=O)[C@@H](NC(=O)[C@H](CCCCN)NC(=O)[C@H](CCC(N)=O)NC(=O)[C@H](CCC(=O)O)NC(=O)[C@H](Cc1c[nH]c2ccccc12)NC(C)=O)[C@@H](C)CC)C(N)=O [LP-80] (Ac-WEQKIEELLKKAEEQQKKNEEELKKLEK(Stearoyl)-NH2),Time of peak serum inhibitory activity after injection,HIV-1NL4-3 pseudovirus,6 to 8 h
same,Vd/F,[1],0.535 ± 0.251 L/kg
same,Injection site reactions (ISRs),SC 3 mg/kg during the treatment,did not cause significant injection site reactions
same,TG,"after 1st treatment (DPI 263), before (DPI 191) 0.58 ± 0.14",0.51 ± 0.07 mmol/L
same,IgA,"after 1st treatment (DPI 263), before (DPI 191) 0.93 ± 0.33",1.05 ± 0.12 g/L
same,IgM,"after 1st treatment (DPI 263), before (DPI 191) 1.28 ± 0.6",1.12 ± 0.56 g/L
same,LDL-C,"after 1st treatment (DPI 263), before (DPI 191) 1.73 ± 0.44",1.56 ± 0.37 mmol/L
same,Ca,"after 1st treatment (DPI 263), before (DPI 191) 2.36 ± 0.11",2.4 ± 0.06 mmol/L
same,HDL-C,"after 1st treatment (DPI 263), before (DPI 191) 2.46 ± 0.07",1.96 ± 0.26 mmol/L
same,UA,"after 1st treatment (DPI 263), before (DPI 191) 3.08 ± 0.61",3.25 ± 0.54 µmol/L
same,GLU,"after 1st treatment (DPI 263), before (DPI 191) 4.32 ± 0.32",5.02 ± 0.98 mmol/L
same,CHO,"after 1st treatment (DPI 263), before (DPI 191) 4.42 ± 0.19",3.90 ± 0.53 mmol/L
same,ALP,"after 1st treatment (DPI 263), before (DPI 191) 4.6 ± 1.52",4.2 ± 1.3 U/L
same,K,"after 1st treatment (DPI 263), before (DPI 191) 4.62 ± 0.13",4.56 ± 0.18 mmol/L
same,TBIL,"after 1st treatment (DPI 263), before (DPI 191) 6.11 ± 1.57",5.52 ± 0.82 µmol/L
same,IgG,"after 1st treatment (DPI 263), before (DPI 191) 7.12 ± 0.72",8.6 ± 1.74 g/L
same,GGT,"after 1st treatment (DPI 263), before (DPI 191) 7.4 ± 1.82",9.2 ± 3.83 U/L
same,UN,"after 1st treatment (DPI 263), before (DPI 191) 8.14 ± 2",8.38 ± 0.74 mmol/L
same,AST,"after 1st treatment (DPI 263), before (DPI 191) 32.4 ± 3.29",30.8 ± 3.27 U/L
same,CK,"after 1st treatment (DPI 263), before (DPI 191) 46.4 ± 9.81",56.6 ± 10.01 U/L
same,TP,"after 1st treatment (DPI 263), before (DPI 191) 74 ± 4.53",71.26 ± 1.76 g/L
same,TG,"after 2nd treatment (DPI 508), before (DPI 325) 0.67 ± 0.13",0.62 ± 0.21 mmol/L
same,IgA,"after 2nd treatment (DPI 508), before (DPI 325) 0.76 ± 0.31",0.86 ± 0.18 g/L
same,IgM,"after 2nd treatment (DPI 508), before (DPI 325) 1.41 ± 0.29",1.49 ± 0.29 g/L
same,P,"after 2nd treatment (DPI 508), before (DPI 325) 1.74 ± 0.19",1.29 ± 0.24 mmol/L
same,HDL-C,"after 2nd treatment (DPI 508), before (DPI 325) 2.46 ± 0.31",2.66 ± 0.45 mmol/L
same,UA,"after 2nd treatment (DPI 508), before (DPI 325) 2.54 ± 0.28",2.54 ± 0.73 µmol/L
same,CHO,"after 2nd treatment (DPI 508), before (DPI 325) 3.87 ± 0.44",4.02 ± 0.51 mmol/L
same,K,"after 2nd treatment (DPI 508), before (DPI 325) 4.7 ± 0.2",4.64 ± 0.26 mmol/L
same,TBIL,"after 2nd treatment (DPI 508), before (DPI 325) 5.92 ± 0.9",5.52 ± 0.9 µmol/L
same,UN,"after 2nd treatment (DPI 508), before (DPI 325) 9.34 ± 1.26",7.99 ± 0.92 mmol/L
same,ALT,"after 2nd treatment (DPI 508), before (DPI 325) 12.8 ± 3.27",13.2 ± 2.86 U/L
same,AST,"after 2nd treatment (DPI 508), before (DPI 325) 27.2 ± 3.11",31.4 ± 4.45 U/L
same,CK,"after 2nd treatment (DPI 508), before (DPI 325) 54.6 ± 10.74",55.4 ± 14.19 U/L
same,Systemic toxicities,"blood biochemical parameters, CD4+ and CD8+ T lymphocytes monitored",No systemic toxicities were observed
same,ALP,"rhesus monkey, in vivo",7.4 ± 2.07 U/L
same,ALT,"rhesus monkey, in vivo",15.8 ± 3.27 U/L
same,Ca,"rhesus monkey, in vivo",2.19 ± 0.03 mmol/L
same,GGT,"rhesus monkey, in vivo",10.4 ± 1.95 U/L
same,IgG,"rhesus monkey, in vivo",8.52 ± 1.32 g/L
same,LDH,"rhesus monkey, in vivo",262.8 ± 48.26 U/L
same,LDL-C,"rhesus monkey, in vivo",1.32 ± 0.32 mmol/L
same,P,"rhesus monkey, in vivo",0.98 ± 0.07 mmol/L
same,TP,"rhesus monkey, in vivo",71.15 ± 2.86 g/L
